Measurements from ChEMBL document CHEMBL4513161, “CO-ADD screening of MMV (CH) - Pandemic Response Box” (2021).

Key:
[1] = system: Staphylococcus aureus; assay: microbe, parasite or virus in culture; conditions: ATCC 43300, 18 h, ASSAY_TEST Inhibition of Bacterial Growth, detection method Absorption (OD600), MEDIA CAMHB, plate type 384well, NBS, CORNING #3640
Description: Antibacterial activity against Staphylococcus aureus MRSA ATCC 43300 (CO-ADD:GP_020); MIC in CAMBH media, using NBS plates, by OD(600)

[2] = system: Klebsiella pneumoniae; assay: microbe, parasite or virus in culture; conditions: ATCC 700603, 18 h, ASSAY_TEST Inhibition of Bacterial Growth, detection method Absorption (OD600), MEDIA CAMHB, plate type 384well, NBS, CORNING #3640
Description: Antibacterial activity against Klebsiella pneumoniae MDR ATCC 70063 (CO-ADD:GN_003); MIC in CAMBH media using NBS plates, by OD(600)

[3] = system: Cryptococcus neoformans
Description: Antifungal activity against Cryptococcus neoformans H99 ATCC 208821 (CO-ADD:FG_002); MIC in YNB media using NBS plates, by Resazurin OD(600-570)

[4] = system: Pseudomonas aeruginosa; assay: microbe, parasite or virus in culture; conditions: ATCC 27853, 18 h, ASSAY_TEST Inhibition of Bacterial Growth, detection method Absorption (OD600), MEDIA CAMHB, plate type 384well, NBS, CORNING #3640
Description: Antibacterial activity against Pseudomonas aeruginosa ATCC 27853 (CO-ADD:GN_042); MIC in CAMBH media using NBS plates, by OD(600)

[5] = system: HEK293; assay: cells; assay type: functional, Homo sapiens, ATCC CRL1573; conditions: Homo sapiens, ATCC CRL1573, HEK293; ASSAY_TEST Inhibition of Cell Viability; detection method Resazurin; Fluorescence (ex560/em590); MEDIA DMEM with 10% FBS; plate type 384well; TC; CORNING #3712; time 18 hr; read-out: CC50
[6] = system: Pseudomonas aeruginosa; assay: Antibacterial activity against Pseudomonas aeruginosa PAO397 [PAO1 d(mexAB-oprM) d(mexCD-oprJ) d(mexEF-oprN) d(mexJKL) d(mexXY) d(opmH)] (CO-ADD:GN_211); MIC in CAMBH media using NBS plates, by OD(600); assay type: functional; conditions: ASSAY_TEST Inhibition of Bacterial Growth, detection method Absorption (OD600), MEDIA CAMHB, plate type 384well, CORNING #3640, time 18 hr
[7] = system: Candida albicans; assay: microbe, parasite or virus in culture; conditions: ATCC 90028, ASSAY_TEST Inhibition of Fungal Growth, detection method Absorption (OD530), plate type 384well, NBS, CORNING #3640
Description: Antifungal activity against Candida albicans ATCC 90028 (CO-ADD:FG_001); MIC in YNB media using NBS plates, by OD630

[8] = system: Acinetobacter baumannii; assay: microbe, parasite or virus in culture; conditions: ATCC 19606, 18 h, ASSAY_TEST Inhibition of Bacterial Growth, detection method Absorption (OD600), MEDIA CAMHB, plate type 384well, NBS, CORNING #3640
Description: Antibacterial activity against Acinetobacter baumannii ATCC 19606 (CO-ADD:GN_034); MIC in CAMBH media using NBS plates, by OD600

[9] = system: Escherichia coli; assay: microbe, parasite or virus in culture; conditions: ATCC 25922, 18 h, ASSAY_TEST Inhibition of Bacterial Growth, detection method Absorption (OD600), MEDIA CAMHB, plate type 384well, NBS, CORNING #3640
Description: Antibacterial activity against Escherichia coli ATCC 25922 (CO-ADD:GN_001); MIC in CAMBH media using NBS plates, by OD(600)

Nc1nc(N)c2c(Sc3ccccc3)cccc2n1
10.8 µM: CC50 [5]
> 20 µM: MIC [1] | MIC [2] | MIC [3] | MIC [4] | MIC [6] | MIC [7] | MIC [8] | MIC [9]

CCN(CC)S(=O)(=O)c1ccc(Cl)c(C(=O)Nc2sc3c(c2C#N)CCCC3)c1
> 20 µM: MIC [1] | MIC [2] | MIC [3] | MIC [4] | CC50 [5] | MIC [6] | MIC [7] | MIC [8] | MIC [9]

Cc1ccc(Oc2ccccc2-c2csc(N=C3NCCCN3)n2)c(C)c1 [ABAFUNGIN]
0.312 µM: MIC [7]
> 20 µM: MIC [1] | MIC [2] | MIC [3] | MIC [4] | CC50 [5] | MIC [6] | MIC [8] | MIC [9]

COc1ccccc1CN[C@H]1C2CCN(CC2)[C@H]1C(c1ccccc1)c1ccccc1 [CP-96345]
> 20 µM: MIC [1] | MIC [2] | MIC [3] | MIC [4] | CC50 [5] | MIC [6] | MIC [7] | MIC [8] | MIC [9]

CC[N+]1(C/C2=C/CCCCCC2)CCC(NC(=O)C2c3cc(Cl)ccc3Oc3ccc(Cl)cc32)CC1 (stereo unspecified)
> 20 µM: MIC [2] | MIC [3] | MIC [4] | CC50 [5] | MIC [6] | MIC [7] | MIC [8] | MIC [9]
20 µM: MIC [1]

O=C(NC(=O)N1CCCc2ccccc21)c1ccc(Cl)cc1Cl
> 20 µM: MIC [1] | MIC [2] | MIC [3] | MIC [4] | CC50 [5] | MIC [6] | MIC [7] | MIC [8] | MIC [9]

O=C1CCC(N2C(=O)c3ccccc3C2=O)C(=O)N1 (stereo unspecified) [THALIDOMIDE]
> 20 µM: MIC [1] | MIC [2] | MIC [3] | MIC [4] | CC50 [5] | MIC [6] | MIC [7] | MIC [8] | MIC [9]

COC(=O)Nc1nc2ccccc2[nH]1 [CARBENDAZIM]
> 20 µM: MIC [1] | MIC [2] | MIC [3] | MIC [4] | MIC [6] | MIC [7] | MIC [8] | MIC [9]
15.5 µM: CC50 [5]

Nc1nnnn1CCOc1c2[nH]c3ccc(Cl)cc3c2cc2c1[nH]c1ccc(Cl)cc12
19.9 µM: CC50 [5]
> 20 µM: MIC [1] | MIC [2] | MIC [3] | MIC [4] | MIC [6] | MIC [7] | MIC [8] | MIC [9]

Cc1nc2ccc(Cl)cc2c(-c2ccccc2)c1CC(=O)O
> 20 µM: MIC [1] | MIC [2] | MIC [3] | MIC [4] | CC50 [5] | MIC [6] | MIC [7] | MIC [8] | MIC [9]

Cc1cc(C)n(O)c(=O)c1 [METIPIROX]
> 20 µM: MIC [1] | MIC [2] | MIC [4] | CC50 [5] | MIC [6] | MIC [7] | MIC [8] | MIC [9]
20 µM: MIC [3]

Cc1onc(-c2ccccc2Cl)c1C(=O)N[C@@H]1C(=O)N2[C@@H]1SC(C)(C)[C@@H]2C(=O)O [CLOXACILLIN]
1.25 µM: MIC [1]
> 20 µM: MIC [2] | MIC [3] | MIC [4] | CC50 [5] | MIC [6] | MIC [7] | MIC [8] | MIC [9]

CCCNc1ccc(S(=O)(=O)Nc2cc(C)on2)cc1
> 20 µM: MIC [1] | MIC [2] | MIC [3] | MIC [4] | CC50 [5] | MIC [6] | MIC [7] | MIC [8] | MIC [9]

Cc1ccc(S(=O)(=O)Nc2cccc3cccnc23)cc1
4.05 µM: CC50 [5]
> 20 µM: MIC [1] | MIC [2] | MIC [3] | MIC [4] | MIC [6] | MIC [7] | MIC [8] | MIC [9]

NC(=O)c1c(N)sc2c1CCCCC2
> 20 µM: MIC [1] | MIC [2] | MIC [3] | MIC [4] | CC50 [5] | MIC [6] | MIC [7] | MIC [8] | MIC [9]

C[C@@H](c1nc(-c2ccc(C#N)cc2)cs1)[C@](O)(Cn1cncn1)c1ccc(F)cc1F [RAVUCONAZOLE]
0.312 µM: MIC [3]
> 20 µM: MIC [1] | MIC [2] | MIC [4] | CC50 [5] | MIC [6] | MIC [8] | MIC [9]
≤ 0.156 µM: MIC [7]

O=S(=O)(NCB(O)O)c1cc2c(Cl)ccc(Cl)c2s1
> 20 µM: MIC [2] | MIC [3] | MIC [4] | CC50 [5] | MIC [6] | MIC [7] | MIC [8] | MIC [9]
10 µM: MIC [1]

C[C@H](NC(=O)C(=O)Nc1ccccc1C(C)(C)C)C(=O)N[C@@H](CC(=O)O)C(=O)COc1c(F)c(F)cc(F)c1F
> 20 µM: MIC [1] | MIC [2] | MIC [3] | MIC [4] | CC50 [5] | MIC [6] | MIC [7] | MIC [8] | MIC [9]

C=C(C)n1c(=O)n(Cc2ccccc2C)c2ccccc21
> 20 µM: MIC [1] | MIC [2] | MIC [3] | MIC [4] | CC50 [5] | MIC [6] | MIC [7] | MIC [8] | MIC [9]

O=C(NCc1ccccc1Cl)c1cnc2ccccc2n1
> 20 µM: MIC [1] | MIC [2] | MIC [3] | MIC [4] | CC50 [5] | MIC [6] | MIC [7] | MIC [8] | MIC [9]

Cn1c2ccccc2c(=O)c2c(O)cccc21
> 20 µM: MIC [1] | MIC [2] | MIC [3] | MIC [4] | CC50 [5] | MIC [6] | MIC [7] | MIC [8] | MIC [9]

COc1cc(NCc2ccc3nc(N)nc(N)c3c2C)cc(OC)c1OC [TRIMETREXATE]
> 20 µM: MIC [2] | MIC [3] | CC50 [5] | MIC [7] | MIC [8]
1.25 µM: MIC [1]
10 µM: MIC [9]
0.625 µM: MIC [6]
5 µM: MIC [4]

c1cnc(NCc2ccc(CNc3ncccn3)cc2)nc1 [MSX-122]
> 20 µM: MIC [1] | MIC [2] | MIC [3] | MIC [4] | CC50 [5] | MIC [6] | MIC [7] | MIC [8] | MIC [9]

CCNC(=O)Nc1cc2c(-c3ccnc(C)c3)ccc(CNC(=O)OC)c2cn1
2.5 µM: MIC [6]
> 20 µM: MIC [2] | MIC [3] | MIC [4] | CC50 [5] | MIC [7] | MIC [8] | MIC [9]
0.312 µM: MIC [1]

NC(=O)c1cnccn1 [PYRAZINAMIDE]
> 20 µM: MIC [1] | MIC [2] | MIC [3] | MIC [4] | CC50 [5] | MIC [6] | MIC [7] | MIC [8] | MIC [9]

CN(C)CC(=O)Nc1ccc2[nH]c(=O)c3ccccc3c2c1 [PJ34]
> 20 µM: MIC [1] | MIC [2] | MIC [3] | MIC [4] | CC50 [5] | MIC [6] | MIC [7] | MIC [8] | MIC [9]

CSc1ccc2c(c1)C(N1CCN(C)CC1)Cc1ccccc1S2 (stereo unspecified) [METITEPINE]
> 20 µM: MIC [1] | MIC [2] | MIC [3] | MIC [4] | CC50 [5] | MIC [6] | MIC [7] | MIC [8] | MIC [9]

C[C@H]1CC[C@@]2(O)C(C)(C)[C@@H]3CC[C@@]2(C)[C@H]1C3
> 20 µM: MIC [1] | MIC [2] | MIC [3] | MIC [4] | CC50 [5] | MIC [6] | MIC [7] | MIC [8] | MIC [9]

CCOc1noc2cc(OCCC3CCN(c4ccc(C)nn4)CC3)ccc12
> 20 µM: MIC [1] | MIC [2] | MIC [3] | MIC [4] | CC50 [5] | MIC [6] | MIC [7] | MIC [8] | MIC [9]
